Reference: ChEMBL document CHEMBL1201862, “PubChem BioAssay data set” (2004)
Calls of active or inactive are those of the source.

Experiments:
[1] = target: Glucose-6-phosphate 1-dehydrogenase (Homo sapiens, UniProt P11413); assay: inhibition of Homo sapiens G6PD, dose series – biochemical, fluorescence, selectivity assay for P. falciparum G6PD inhibitor project, dose response (AID 504792); type: functional
Aminopeptidase N = target: T1, Aminopeptidase N (Plasmodium falciparum FcB1/Columbia, UniProt O96935); assay: malaria alanyl aminopeptidase activity blockers – biochemical, fluorogenic H-Leu-NHMec substrate, 1536-well (AID 1445); set-up: species or system Plasmodium falciparum 3D7, 3D7
T1 sequence (O96935 whole entry): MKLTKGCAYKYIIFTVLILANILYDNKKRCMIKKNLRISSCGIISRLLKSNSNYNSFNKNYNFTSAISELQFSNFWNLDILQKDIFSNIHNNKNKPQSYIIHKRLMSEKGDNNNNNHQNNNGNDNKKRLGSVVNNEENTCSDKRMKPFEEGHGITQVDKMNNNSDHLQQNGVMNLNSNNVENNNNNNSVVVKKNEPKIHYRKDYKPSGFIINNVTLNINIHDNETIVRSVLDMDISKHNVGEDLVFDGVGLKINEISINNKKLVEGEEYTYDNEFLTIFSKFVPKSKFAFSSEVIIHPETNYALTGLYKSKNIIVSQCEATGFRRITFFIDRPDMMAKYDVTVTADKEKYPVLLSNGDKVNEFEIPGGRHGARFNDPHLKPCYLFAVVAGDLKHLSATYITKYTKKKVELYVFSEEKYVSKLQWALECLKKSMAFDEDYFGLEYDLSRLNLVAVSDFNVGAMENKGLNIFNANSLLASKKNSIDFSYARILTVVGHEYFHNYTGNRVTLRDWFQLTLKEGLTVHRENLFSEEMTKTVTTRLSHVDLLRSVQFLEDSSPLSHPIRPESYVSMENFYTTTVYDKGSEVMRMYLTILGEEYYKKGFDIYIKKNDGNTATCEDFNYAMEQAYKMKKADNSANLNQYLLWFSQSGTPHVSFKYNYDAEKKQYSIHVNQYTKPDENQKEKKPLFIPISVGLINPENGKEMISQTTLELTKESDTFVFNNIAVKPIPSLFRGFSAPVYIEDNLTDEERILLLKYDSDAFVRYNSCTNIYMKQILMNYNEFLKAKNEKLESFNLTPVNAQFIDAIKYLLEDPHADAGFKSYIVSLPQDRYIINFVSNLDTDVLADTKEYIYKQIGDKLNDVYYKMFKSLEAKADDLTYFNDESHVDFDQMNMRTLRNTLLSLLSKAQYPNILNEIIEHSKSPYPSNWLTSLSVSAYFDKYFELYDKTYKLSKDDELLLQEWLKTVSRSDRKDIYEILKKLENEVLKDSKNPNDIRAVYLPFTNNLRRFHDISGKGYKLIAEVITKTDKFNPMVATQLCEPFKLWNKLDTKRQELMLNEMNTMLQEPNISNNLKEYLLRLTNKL

Prothrombin = Prothrombin (Bos taurus, UniProt P00735); assay: thrombin protease inhibitors – biochemical, fluorescence polarization, uHTS hits, dose response (AID 602369); type: functional
[2] = target: 72 kDa type IV collagenase (Homo sapiens, UniProt P08253); assay: Dose Response validation of uHTS RPN11 inhibitor hits using a MMP-2 Fluorescence assay.; type: functional
[3] = target: 26S proteasome non-ATPase regulatory subunit 14 (Homo sapiens, UniProt O00487); assay: inhibition of proteasome subunit RPN11 – biochemical, fluorescence polarization, uHTS hits, confirmation (AID 602368); type: functional
HEK293 = assay: EBV LMP1 TES2 canonical NF-kB signalling blockers – cell-based, HEK293, luciferase, cherry-pick, dose response (AID 588343); type: functional; conditions: Homo sapiens
[4] = Trypanosoma cruzi growth suppression in host cells – NIH3T3 host cells, beta-gal luminescence, confirmation (AID 2044); type: functional, cell-based;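 further: intracellular parasites grown in NIH/3T3 mouse fibroblasts as host cells; luminescent beta-galactosidase reporter signal from transgenic T. cruzi replicating inside host cells; inhibitors lower the luminescence signal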
[5] = NIH3T3 cell viability loss – ATP luminescence, mouse fibroblasts, counter-screen, dose response (AID 2010); type: functional, cell-based;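 further: cells exposed to compound for about 90 hours before reading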
[6] = target: T2, Carboxy-terminal domain RNA polymerase II polypeptide A small phosphatase 1 (Homo sapiens, UniProt Q9GZU7); assay: CTDSP1 inhibitors, concentration-response, biochemical, absorbance readout, ultra-high-throughput screen actives (AID 540297); type: functional
T2 sequence (Q9GZU7 whole entry): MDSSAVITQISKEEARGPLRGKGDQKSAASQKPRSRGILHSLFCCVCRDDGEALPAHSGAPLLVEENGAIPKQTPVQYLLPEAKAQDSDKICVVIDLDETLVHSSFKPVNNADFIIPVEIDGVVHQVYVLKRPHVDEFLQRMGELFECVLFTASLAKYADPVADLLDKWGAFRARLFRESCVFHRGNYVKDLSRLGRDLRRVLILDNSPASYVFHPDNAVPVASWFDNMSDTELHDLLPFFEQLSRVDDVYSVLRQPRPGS

[7] = target: T3, Sentrin-specific protease 6 (Homo sapiens, UniProt Q9GZR1); type: functional;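 further: Luminescence-based dose-response confirmatory assay of SENP6 inhibition, following up an ultra-high-throughput screen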
T3 sequence (Q9GZR1 whole entry): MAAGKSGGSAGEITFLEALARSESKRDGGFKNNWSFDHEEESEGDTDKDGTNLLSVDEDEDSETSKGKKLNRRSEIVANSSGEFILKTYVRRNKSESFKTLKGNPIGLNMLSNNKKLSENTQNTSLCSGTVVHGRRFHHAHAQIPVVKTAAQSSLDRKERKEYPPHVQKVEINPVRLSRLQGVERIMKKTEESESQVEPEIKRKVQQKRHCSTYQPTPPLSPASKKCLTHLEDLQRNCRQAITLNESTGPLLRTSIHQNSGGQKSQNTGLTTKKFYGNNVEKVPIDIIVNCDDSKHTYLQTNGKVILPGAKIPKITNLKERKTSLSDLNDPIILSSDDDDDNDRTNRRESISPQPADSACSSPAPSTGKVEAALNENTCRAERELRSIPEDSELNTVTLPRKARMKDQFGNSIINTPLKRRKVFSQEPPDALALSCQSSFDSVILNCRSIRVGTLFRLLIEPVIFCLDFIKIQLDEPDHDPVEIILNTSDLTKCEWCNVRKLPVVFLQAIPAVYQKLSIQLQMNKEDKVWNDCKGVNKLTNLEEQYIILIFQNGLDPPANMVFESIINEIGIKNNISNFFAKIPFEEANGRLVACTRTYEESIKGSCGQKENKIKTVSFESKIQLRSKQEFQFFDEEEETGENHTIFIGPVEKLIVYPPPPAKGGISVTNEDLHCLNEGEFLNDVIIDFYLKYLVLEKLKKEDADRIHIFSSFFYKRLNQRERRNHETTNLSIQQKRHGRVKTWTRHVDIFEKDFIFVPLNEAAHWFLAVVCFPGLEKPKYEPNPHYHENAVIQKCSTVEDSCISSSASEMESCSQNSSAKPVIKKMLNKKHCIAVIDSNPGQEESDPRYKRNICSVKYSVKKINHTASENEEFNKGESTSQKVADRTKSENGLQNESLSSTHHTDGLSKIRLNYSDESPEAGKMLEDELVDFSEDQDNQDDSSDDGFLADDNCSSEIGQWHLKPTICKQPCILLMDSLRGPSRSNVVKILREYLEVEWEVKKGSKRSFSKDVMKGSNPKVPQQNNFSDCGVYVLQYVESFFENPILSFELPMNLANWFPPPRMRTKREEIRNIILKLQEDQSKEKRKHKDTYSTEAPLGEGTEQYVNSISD

[8] = target: T4, Sentrin-specific protease 8 (Homo sapiens, UniProt Q96LD8); type: functional;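 further: luminescence read-out of SENP8 inhibition, dose-response confirmation following an ultra-high-throughput screen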
T4 sequence (Q96LD8 whole entry): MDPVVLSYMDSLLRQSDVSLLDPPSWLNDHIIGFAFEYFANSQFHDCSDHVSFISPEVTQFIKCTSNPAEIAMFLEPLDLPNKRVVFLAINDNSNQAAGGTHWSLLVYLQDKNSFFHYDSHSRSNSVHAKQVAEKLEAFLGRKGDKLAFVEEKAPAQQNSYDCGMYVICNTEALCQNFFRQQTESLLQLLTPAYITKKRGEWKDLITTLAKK

[9] = target: T5, Sentrin-specific protease 7 (Homo sapiens, UniProt Q9BQF6); type: functional;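 further: Luminescence-based dose-response confirmation of ultra-high-throughput screening hits, measuring inhibition of SENP7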
T5 sequence (Q9BQF6 whole entry): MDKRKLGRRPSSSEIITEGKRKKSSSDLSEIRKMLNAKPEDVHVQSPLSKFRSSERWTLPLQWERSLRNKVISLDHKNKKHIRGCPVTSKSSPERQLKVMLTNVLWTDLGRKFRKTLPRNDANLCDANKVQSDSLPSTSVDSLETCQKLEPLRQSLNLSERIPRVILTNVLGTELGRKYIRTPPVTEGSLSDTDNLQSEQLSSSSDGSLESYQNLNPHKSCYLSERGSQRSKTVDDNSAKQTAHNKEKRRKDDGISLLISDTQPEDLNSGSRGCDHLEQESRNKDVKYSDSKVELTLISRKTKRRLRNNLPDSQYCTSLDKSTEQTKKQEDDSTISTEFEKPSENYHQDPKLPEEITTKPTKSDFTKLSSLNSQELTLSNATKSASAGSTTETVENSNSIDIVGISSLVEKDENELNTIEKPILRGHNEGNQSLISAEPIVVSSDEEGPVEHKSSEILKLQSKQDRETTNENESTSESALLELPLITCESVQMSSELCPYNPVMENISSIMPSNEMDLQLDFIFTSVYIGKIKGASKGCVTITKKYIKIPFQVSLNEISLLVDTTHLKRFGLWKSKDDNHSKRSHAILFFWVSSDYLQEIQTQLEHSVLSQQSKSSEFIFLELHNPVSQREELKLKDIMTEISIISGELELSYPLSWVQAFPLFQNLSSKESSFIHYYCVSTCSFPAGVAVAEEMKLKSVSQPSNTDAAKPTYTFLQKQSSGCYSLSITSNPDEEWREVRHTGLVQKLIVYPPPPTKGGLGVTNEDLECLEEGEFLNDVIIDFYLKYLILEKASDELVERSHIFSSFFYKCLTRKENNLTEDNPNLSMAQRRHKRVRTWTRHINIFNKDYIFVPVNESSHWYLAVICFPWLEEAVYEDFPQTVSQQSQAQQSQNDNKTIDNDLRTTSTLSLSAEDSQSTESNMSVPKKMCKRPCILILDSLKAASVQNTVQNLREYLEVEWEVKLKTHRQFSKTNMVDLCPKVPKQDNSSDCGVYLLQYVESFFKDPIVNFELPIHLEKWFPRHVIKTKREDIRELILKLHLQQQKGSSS

Nonstructural protein 1 = Nonstructural protein 1 (Influenza A virus, UniProt Q194T2); type: functional, Influenza A virus (A/California/07/2009(H1N1))
Vero [10] = assay: cells; type: functional, Chlorocebus sabaeus; conditions: Chlorocebus sabaeus, Vero
Vero [11] = assay: cells; type: functional, cell-based, Chlorocebus sabaeus; conditions: Chlorocebus sabaeus, Vero
[12] = target: Heat shock protein HSP 90-alpha (Homo sapiens, UniProt P07900); type: functional, organism-based
[13] = Luminescence Cell-Based Dose Response HTS to Identify Inhibitors of 5'UTR Stem-Loop Driven Prion Protein mRNA Translation in H4 Neuroglioblastoma Cells. [Related pubchem assays: 1827 (Project Summary), 1813 (Primary HTS)]; type: functional
[14] = reduction of Shn3 3'UTR-driven luciferase in osteoblasts – cell-based, Clone20 osteoblasts, firefly luciferase, cherry-picked, dose response (AID 624132); type: functional;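 further: firefly luciferase luminescence from reporter carrying the Shn3 3'UTR in osteoblasts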
[15] = luciferase reporter signal suppression in cells – H4 neuroglioma cells, luminescence, dose response (AID 1990); type: functional, cell-based
[16] = non-specific 3'UTR reporter inhibition in Clone20-Shn3RL – cell-based, Renilla luciferase, cherry-picked, counter-screen for Shn3 inhibitor project, dose response (AID 624133); type: functional
cells [17] = type: functional, cell-based
[18] = loss of viability in HepG2 cells – cell-based, CellTiter-Glo, cherry-picked, cytotoxicity control for Shn3 inhibitor project, dose response (AID 624134); type: functional
cells [19] = type: functional, cell-based; remark: listed apart in the source
Vero [20] = assay: viability of Vero cells under compound – cytotoxicity control for flavivirus capping enzyme inhibitors (AID 588742); type: functional; conditions: Chlorocebus sabaeus
[21] = alpha-synuclein stem-loop luciferase translation blockers – H4 neuroglioma cells, luminescence, confirmation (AID 1988); type: functional, cell-based

Glucose-6-phosphate 1-dehydrogenase, sequence (P11413 whole entry): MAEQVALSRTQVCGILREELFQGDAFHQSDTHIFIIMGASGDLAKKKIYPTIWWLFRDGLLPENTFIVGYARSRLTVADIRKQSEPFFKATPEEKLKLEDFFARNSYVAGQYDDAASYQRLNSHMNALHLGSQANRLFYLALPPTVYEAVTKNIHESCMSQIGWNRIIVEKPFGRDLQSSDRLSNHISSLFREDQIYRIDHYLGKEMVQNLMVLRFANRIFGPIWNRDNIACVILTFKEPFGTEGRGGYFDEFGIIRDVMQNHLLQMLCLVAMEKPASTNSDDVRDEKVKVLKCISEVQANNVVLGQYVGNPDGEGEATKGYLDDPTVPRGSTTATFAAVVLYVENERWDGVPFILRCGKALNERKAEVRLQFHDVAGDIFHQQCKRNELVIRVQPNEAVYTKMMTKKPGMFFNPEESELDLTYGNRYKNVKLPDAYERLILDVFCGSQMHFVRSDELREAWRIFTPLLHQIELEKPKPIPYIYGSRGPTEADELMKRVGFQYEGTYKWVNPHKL
26S proteasome non-ATPase regulatory subunit 14, sequence (O00487 whole entry): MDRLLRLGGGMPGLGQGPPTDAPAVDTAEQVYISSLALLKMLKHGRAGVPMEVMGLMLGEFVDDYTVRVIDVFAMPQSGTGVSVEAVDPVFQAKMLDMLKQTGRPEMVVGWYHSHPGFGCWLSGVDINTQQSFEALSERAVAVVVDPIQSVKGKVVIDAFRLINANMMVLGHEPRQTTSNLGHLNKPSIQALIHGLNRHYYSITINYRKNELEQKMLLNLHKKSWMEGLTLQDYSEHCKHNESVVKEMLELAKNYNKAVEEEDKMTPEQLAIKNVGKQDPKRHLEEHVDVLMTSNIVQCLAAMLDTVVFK
72 kDa type IV collagenase, sequence (P08253 whole entry): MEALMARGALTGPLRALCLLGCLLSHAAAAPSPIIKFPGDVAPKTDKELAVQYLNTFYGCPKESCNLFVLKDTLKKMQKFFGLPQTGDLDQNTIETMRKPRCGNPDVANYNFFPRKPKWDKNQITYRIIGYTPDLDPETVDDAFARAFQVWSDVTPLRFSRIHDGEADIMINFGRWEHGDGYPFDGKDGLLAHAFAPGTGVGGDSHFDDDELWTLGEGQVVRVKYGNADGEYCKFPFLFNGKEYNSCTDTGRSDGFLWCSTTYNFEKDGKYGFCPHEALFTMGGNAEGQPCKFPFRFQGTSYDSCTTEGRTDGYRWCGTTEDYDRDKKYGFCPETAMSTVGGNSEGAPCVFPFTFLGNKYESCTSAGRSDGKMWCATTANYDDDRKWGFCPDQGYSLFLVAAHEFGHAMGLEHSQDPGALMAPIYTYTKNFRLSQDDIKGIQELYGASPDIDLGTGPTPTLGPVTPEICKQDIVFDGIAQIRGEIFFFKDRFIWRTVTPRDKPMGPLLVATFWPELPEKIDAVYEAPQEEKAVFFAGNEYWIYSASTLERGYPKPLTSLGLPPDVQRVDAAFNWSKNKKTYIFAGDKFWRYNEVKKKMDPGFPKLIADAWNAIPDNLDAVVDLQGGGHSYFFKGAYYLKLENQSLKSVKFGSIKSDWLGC
Nonstructural protein 1, sequence (Q194T2 whole entry): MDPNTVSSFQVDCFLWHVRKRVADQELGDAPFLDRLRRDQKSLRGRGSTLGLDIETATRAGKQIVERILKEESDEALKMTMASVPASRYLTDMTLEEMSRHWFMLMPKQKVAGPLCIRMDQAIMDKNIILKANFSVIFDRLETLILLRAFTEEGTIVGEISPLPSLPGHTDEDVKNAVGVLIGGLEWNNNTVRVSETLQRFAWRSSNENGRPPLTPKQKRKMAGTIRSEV

SMILES: COc1cccc(CNc2ccc3[nH]c(O)nc3c2)c1OCc1ccc(F)cc1
- IC50 [1]: > 80 µM (inactive)

SMILES: CCCN1C(=O)/C(=C/c2c(N3CCNC(=O)C3CC(=O)OC)nc3c(C)cccn3c2=O)SC1=S (configuration not stated)
- IC50 (Aminopeptidase N): 68.1 µM (active)

SMILES: CCn1c([N+](=O)[O-])nc2c1c(=O)[nH]c(=O)n2C
- IC50 [1]: > 80 µM (inactive)

SMILES: CCOC(=O)Cc1csc(NC(=O)c2sc3nc4ccc(C)cc4cc3c2N)n1
- IC50 (Prothrombin): 77.9 µM (active)
- IC50 [2]: > 100 µM (inactive)
- IC50 [3]: 33.9 µM (active)

SMILES: COc1cc(/C=C(/C#N)c2nc3ccccc3[nH]2)ccc1OCc1ccc(C(=O)O)o1
- IC50 (Aminopeptidase N): 52.1 µM (active)

SMILES: COc1ccc(CCn2c(NN=C3CCCC3)nc3c2c(=O)[nH]c(=O)n3C)cc1
- IC50 [1]: > 80 µM (inactive)

SMILES: CCOc1ccc(NC(=O)c2ccc(N3CC4CC(C3)c3cccc(=O)n3C4)c(NC(=O)c3cccnc3)c2)cc1 (configuration not stated)
- AC50 (HEK293): > 350 µM (inactive)

SMILES: O=C(O)c1cccc(NC(S)=NC(NC(=O)c2ccccc2[N+](=O)[O-])C(Cl)(Cl)Cl)c1 (configuration not stated)
- IC50 (Aminopeptidase N): 58.6 µM (active)

SMILES: CC1=NN(c2nc(-c3ccc(C)cc3)cs2)C(=O)C1N=Nc1ccccc1O (configuration not stated)
- IC50 (Aminopeptidase N): 3.37 µM (active)
- EC50 [4]: 1.63 µM (active)
- EC50 [5]: > 60 µM (not active)
- IC50 [6]: 3.69 µM (active)

SMILES: CC(=O)Nc1nc(COc2ccc3ccccc3c2)cs1
- IC50 [7]: 8.61 µM (active)
- IC50 [8]: 9.93 µM (active)
- IC50 [9]: 5.88 µM (active)

SMILES: CC(=NNc1nc2ccccc2o1)c1ncccn1
- IC50 (Nonstructural protein 1): 0.739 µM (active)
- AC50 (HEK293): 1.23 µM (active)
- CC50 (Vero [10]): 1.34 µM (active)
- IC50 (Vero [11]): > 25 µM (active)
- AC50 [12]: 1.97 µM (active)

SMILES: COc1ccc(C=C2OC(O)=C(C(C)=O)C2=O)cc1
- AC50 (HEK293): 6.16 µM (active)

SMILES: COc1ccc(C(NC(=O)c2cccnc2)c2cc(Cl)c3cccnc3c2O)cc1OC (configuration not stated)
- EC50 [13]: 0.297 µM (active)
- AC50 [14]: 1.88 µM (active)
- EC50 [15]: 13.3 µM (active)
- AC50 [16]: 1.14 µM (active)
- EC50 (cells [17]): > 350 µM (not active)
- AC50 [18]: 2.7 µM (active)
- EC50 (cells [19]): 14.2 µM (active)
- CC50 (Vero [20]): 3.92 µM (active)
- EC50 [21]: > 120 µM (not active)
